# Data from publication PMC8536799 (Journal of medicinal chemistry, 2021).
# Tests used:
# Vero E6 cells = assay: Cytotoxicity, neutral red uptake assay in Vero E6 cells
# SARS-CoV M^pro = SARS-CoV M^pro (Severe acute respiratory syndrome coronavirus, UniProt P0C6X7); assay: biochemical; settings: IC50 against SARS-CoV M^pro
# EV-D68 3C^pro = EV-D68 3C^pro (Human enterovirus D68, UniProt Q68T42); assay: FRET-based enzymatic assay, EV-D68 3C^pro; assay type: biochemical
# EV-D68 2A^pro = EV-D68 2A^pro (Human enterovirus D68, UniProt Q68T42); assay: FRET-based enzymatic assay, EV-D68 2A^pro; assay type: biochemical
# MERS-CoV M^pro = MERS-CoV M^pro (Middle East respiratory syndrome-related coronavirus, UniProt K9N7C7); assay type: biochemical
# Calu-3 cells = assay: Cytotoxicity in Calu-3 cells
# EV-A71 2A^pro = EV-A71 2A^pro (Human enterovirus 71, UniProt Q66478); assay: FRET-based enzymatic assay, EV-A71 2A^pro; assay type: biochemical
# EV-A71 3C^pro = EV-A71 3C^pro (Human enterovirus 71, UniProt Q66478); assay: FRET-based enzymatic assay, EV-A71 3C^pro; assay type: biochemical
# HCoV-OC43 M^pro = HCoV-OC43 M^pro (Human coronavirus OC43, UniProt P0C6X6); assay: FRET-based enzymatic assay, HCoV-OC43 M^pro
# [1] = Cytotoxicity, neutral red uptake assay in Vero E6 cells; settings: African green monkey
# Chain of EV-D68 3C^pro (Q68T42 1549-1731 limits assumed): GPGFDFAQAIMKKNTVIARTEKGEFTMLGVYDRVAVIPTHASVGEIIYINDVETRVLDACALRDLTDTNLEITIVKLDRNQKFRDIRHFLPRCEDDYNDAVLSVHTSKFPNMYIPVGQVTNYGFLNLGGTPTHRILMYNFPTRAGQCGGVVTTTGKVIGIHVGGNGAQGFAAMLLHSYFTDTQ
# Chain of EV-A71 3C^pro (Q66478 1549-1731 limits assumed): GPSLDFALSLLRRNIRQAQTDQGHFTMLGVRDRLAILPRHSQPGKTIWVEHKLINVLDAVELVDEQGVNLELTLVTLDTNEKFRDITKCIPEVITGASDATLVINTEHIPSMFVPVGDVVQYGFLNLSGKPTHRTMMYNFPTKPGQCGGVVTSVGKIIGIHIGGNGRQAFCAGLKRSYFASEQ
# Chain of EV-D68 2A^pro (Q68T42 862-1008 limits assumed): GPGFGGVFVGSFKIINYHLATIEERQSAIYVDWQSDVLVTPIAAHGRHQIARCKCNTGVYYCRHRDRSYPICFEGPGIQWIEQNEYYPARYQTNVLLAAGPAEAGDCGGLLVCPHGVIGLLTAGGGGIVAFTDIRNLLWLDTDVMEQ
# Chain of EV-A71 2A^pro (Q66478 863-1012 limits assumed): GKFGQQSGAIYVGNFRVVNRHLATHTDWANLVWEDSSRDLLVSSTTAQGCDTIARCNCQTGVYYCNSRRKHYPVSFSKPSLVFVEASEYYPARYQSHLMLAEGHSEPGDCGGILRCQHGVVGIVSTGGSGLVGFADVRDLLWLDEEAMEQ
# Chain of HCoV-OC43 M^pro (P0C6X6 3247-3549 limits assumed): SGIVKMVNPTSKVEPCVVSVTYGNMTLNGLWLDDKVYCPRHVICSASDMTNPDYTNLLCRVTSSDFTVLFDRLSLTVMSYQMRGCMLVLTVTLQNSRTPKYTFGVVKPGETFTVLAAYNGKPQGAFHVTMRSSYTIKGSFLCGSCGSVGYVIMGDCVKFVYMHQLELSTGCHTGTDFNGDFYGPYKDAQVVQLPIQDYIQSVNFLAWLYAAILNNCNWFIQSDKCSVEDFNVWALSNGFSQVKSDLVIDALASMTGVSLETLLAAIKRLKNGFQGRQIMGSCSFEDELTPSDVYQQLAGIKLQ
# Chain of MERS-CoV M^pro (K9N7C7 3248-3553 limits assumed): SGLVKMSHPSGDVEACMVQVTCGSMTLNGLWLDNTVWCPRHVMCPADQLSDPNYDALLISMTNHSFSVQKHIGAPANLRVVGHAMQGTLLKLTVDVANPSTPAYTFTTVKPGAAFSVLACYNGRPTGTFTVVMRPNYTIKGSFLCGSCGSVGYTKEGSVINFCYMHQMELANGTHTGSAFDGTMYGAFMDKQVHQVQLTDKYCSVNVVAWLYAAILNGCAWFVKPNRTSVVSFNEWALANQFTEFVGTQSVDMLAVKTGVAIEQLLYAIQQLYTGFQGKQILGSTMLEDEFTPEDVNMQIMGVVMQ
compound,measurement,setting,value
"C[C@H](NC(=O)C(c1cccnc1)N(C(=O)c1cnco1)c1ccc(-c2ccccc2)cc1)c1ccccc1 (stereo partly drawn) [Compound 26, 2-(N-{[1,1’-biphenyl]-4-yl}-1-(1,3-oxazol-5-yl)formamido)-N-[(1S)-1-phenylethyl]-2-(pyridin-3-yl)acetamide]",CC50 in Vero E6 cells,Vero E6 cells,moderate to high cellular cytotoxicity
"C[C@H](NC(=O)[C@@H](c1cccnc1)N(C(=O)c1ccco1)c1ccc(-c2ccccc2)cc1)c1ccccc1 [Compound 23R, (2R)-2-(N-{[1,1’-biphenyl]-4-yl}-1-(furan-2-yl)formamido)-N-[(1S)-1-phenylethyl]-2-(pyridin-3-yl)acetamide]",IC50,SARS-CoV M^pro,≤ 270 nM
same,IC50 against EV-D68 3C^pro,EV-D68 3C^pro; FRET-based enzymatic assay,not other viral proteases tested
same,cytotoxicity to Vero E6 cells (not cytotoxic at up to),Vero E6 cells,> 100 µM
same,IC50 against EV-D68 2A^pro,EV-D68 2A^pro; FRET-based enzymatic assay,not other viral proteases tested
same,IC50 against MERS-CoV M^pro,MERS-CoV M^pro,not other viral proteases tested
same,cytotoxicity in Calu-3 cells (not cytotoxic at up to),Calu-3 cells,> 100 µM
same,IC50 against EV-A71 2A^pro,EV-A71 2A^pro; FRET-based enzymatic assay,not other viral proteases tested
same,IC50 against EV-A71 3C^pro,EV-A71 3C^pro; FRET-based enzymatic assay,not other viral proteases tested
same,IC50 against HCoV-OC43 M^pro,HCoV-OC43 M^pro,not other viral proteases tested
"CC(C)C[C@H](NC(=O)OCc1ccccc1)C(=O)N[C@@H](C[C@@H]1CCNC1=O)C(O)S(=O)(=O)O (some centres unmarked) [GC376, reference compound]",IC50,EV-D68 3C^pro,≤ 160 nM
same,IC50,EV-D68 2A^pro,> 50 µM
same,IC50,EV-A71 2A^pro,> 50 µM
same,IC50,EV-A71 3C^pro,≤ 160 nM
"CC(C)(C)c1ccc(N(C(=O)c2ccco2)C(C(=O)NC2CCCC2)c2cccnc2)cc1 (centres unmarked) [Compound 5, 2-[N-(4-tert-butylphenyl)-1-(furan-2-yl)formamido]-N-cyclopentyl-2-(pyridin-3-yl)acetamide]",CC50 at 5 days,[1],> 100 µM
"O=C(NC1CCCCC1)C(c1cccnc1)N(C(=O)c1ccco1)c1ccc(-c2ccccc2)cc1 (centres unmarked) [Compound 34, 2-(N-{[1,1’-biphenyl]-4-yl}-1-(furan-2-yl)formamido)-N-cyclohexyl-2-(pyridin-3-yl)acetamide]",CC50 in Vero E6 cells,Vero E6 cells,moderate to high cellular cytotoxicity
"C[C@H](NC(=O)C(c1cccnc1)N(C(=O)c1ccno1)c1ccc(C2CCCCC2)cc1)c1ccccc1 (stereo partly drawn) [Compound 36, 2-[N-(4-cyclohexylphenyl)-1-(1,2-oxazol-5-yl)formamido]-N-[(1S)-1-phenylethyl]-2-(pyridin-3-yl)acetamide]",CC50 in Vero E6 cells,Vero E6 cells,moderate to high cellular cytotoxicity
"C[C@H](NC(=O)C(c1cccnc1)N(C(=O)c1ccco1)c1ccc(-c2cccs2)cc1)c1ccccc1 (stereo partly drawn) [Compound 19, 2-[1-(furan-2-yl)-N-[4-(thiophen-2-yl)phenyl]formamido]-N-[(1S)-1-phenylethyl]-2-(pyridin-3-yl)acetamide]",CC50 in Vero E6 cells,Vero E6 cells,moderate to high cellular cytotoxicity
"C[C@H](NC(=O)C(c1cccnc1)N(C(=O)c1ccco1)c1ccc([Si](C)(C)C)cc1)c1ccccc1 (stereo partly drawn) [Compound 14, 2-[1-(furan-2-yl)-N-[4-(trimethylsilyl)phenyl]formamido]-N-[(1S)-1-phenylethyl]-2-(pyridinyl)acetamide]",CC50 in Vero E6 cells,Vero E6 cells,moderate to high cellular cytotoxicity
"CC(C)(C)c1ccc(N(C(=O)c2ccco2)C(C(=O)NC2CCCCC2)c2cccnc2)cc1 (centres unmarked) [Compound 6, 2-[N-(4-tert-butylphenyl)-1-(furan-2-yl)formamido]-N-cyclohexyl-2-(pyridin-3-yl)acetamide]",CC50 in Vero E6 cells,Vero E6 cells,moderate to high cellular cytotoxicity
"CC(C)(C)c1ccc(N(C(=O)c2ccco2)C(C(=O)NC2CC2)c2cccnc2)cc1 (centres unmarked) [Compound 3, 2-[N-(4-tert-butylphenyl)-1-(furan-2-yl)formamido]-N-cyclopropyl-2-(pyridin-3-yl)acetamide]",CC50 in Vero E6 cells,Vero E6 cells,moderate to high cellular cytotoxicity
"C[C@H](NC(=O)C(c1cccnc1)N(C(=O)c1ccco1)c1ccc(-c2ccco2)cc1)c1ccccc1 (stereo partly drawn) [Compound 18, 2-[1-(furan-2-yl)-N-[4-(furan-2-yl)phenyl]formamido]-N-[(1S)-1-phenylethyl]-2-(pyridin-3-yl)acetamide]",CC50 in Vero E6 cells,Vero E6 cells,moderate to high cellular cytotoxicity
"C[C@H](NC(=O)C(c1cccnc1)N(C(=O)c1ccco1)c1ccc(C2CCCCC2)cc1)c1ccccc1 (stereo partly drawn) [Compound 17, 2-[N-(4-cyclohexylphenyl)-1-(furan-2-yl)formamido]-N-[(1S)-1-phenylethyl]-2-(pyridin-3-yl)acetamide]",CC50 in Vero E6 cells,Vero E6 cells,moderate to high cellular cytotoxicity
